Results on 40 compounds are retold here after the supplement of paper PMC12137928.

For this assay, the system named is HCT116. Conditions: 72 h. The method in brief: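 For IC50 and maximal efficacy, four-parameter Hill fits were used. Input values were CellTiter-Glo luminescence from HCT116 cells seeded at 250 per well in 1536-well plates, normalized to vehicle (0%) and positive control (-100%). Pattern correction followed normalization.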

Molecules are shown by their SMILES. Where a name gives a salt, the structure may show the parent alone.

Regarding `C/C=C\c1ccc(O)c(OC)c1` [Isoeugenol], the IC50 cell viability is more than 45.8 µM (ICRF193 0 nM) and more than 45.8 µM (ICRF193 200 nM).
Regarding `COc1ccc(NS(=O)(=O)c2ccc(N)cc2)nn1` [Sulfamethoxypyridazine], the IC50 cell viability is more than 45.8 µM (ICRF193 0 nM) and more than 45.8 µM (ICRF193 200 nM).
On to `C[C@H](CS)C(=O)N1CCC[C@H]1C(=O)O` [Captopril], for which the IC50 cell viability was more than 45.8 µM (ICRF193 0 nM) and more than 45.8 µM (ICRF193 200 nM).
For the compound `CC(=O)Nc1ccc(CC(=O)O)cc1` [4-Acetylaminophenylacetic acid], the IC50 cell viability (ICRF193 0 nM) was more than 45.8 µM and the IC50 cell viability (ICRF193 200 nM) is more than 45.8 µM.
For the compound `CC(=O)CCCCn1c(=O)c2c(ncn2C)n(C)c1=O` [Pentoxifylline], the IC50 cell viability runs as follows: (ICRF193 0 nM) more than 45.8 µM; (ICRF193 200 nM) more than 45.8 µM.
Take `CC(C)C(=O)Nc1cccc(C2CN3CCSC3=N2)c1` (stereo not given) [Butamisole]: the IC50 cell viability is more than 45.8 µM (ICRF193 0 nM) and more than 45.8 µM (ICRF193 200 nM).
For `CNC(=O)c1c(I)c(NC(=O)CCCCC(=O)Nc2c(I)c(C(=O)O)c(I)c(C(=O)NC)c2I)c(I)c(C(=O)O)c1I` [Iocarmic acid], the IC50 cell viability is more than 45.8 µM (ICRF193 0 nM) and more than 45.8 µM (ICRF193 200 nM).
For the compound `NC(CS)C(=O)O` (racemic) [DL-Cysteine], the IC50 cell viability was more than 45.8 µM (ICRF193 0 nM) and more than 45.8 µM (ICRF193 200 nM).
In the case of `CCOC(=O)OC(C)OC1=C(C(=O)Nc2ccccn2)N(C)S(=O)(=O)c2ccccc21` (stereo not given) [Ampiroxicam], the IC50 cell viability was more than 45.8 µM (ICRF193 0 nM) and more than 45.8 µM (ICRF193 200 nM).
In the case of `CC(=O)Nc1cc([As](=O)(O)O)ccc1O` [Acetarsol], the IC50 cell viability is more than 45.8 µM (ICRF193 0 nM) and more than 45.8 µM (ICRF193 200 nM).
Regarding `CCOC(=O)Oc1ccc(CCNC(=O)[C@H](CCSC)NC(C)=O)cc1OC(=O)OCC` [Docarpamine], the IC50 cell viability (ICRF193 0 nM) was more than 45.8 µM and the IC50 cell viability (ICRF193 200 nM) was more than 45.8 µM.
With `c1ccc2[nH]c(-c3cscn3)nc2c1` [Thiabendazole], the IC50 cell viability was more than 45.8 µM (ICRF193 0 nM) and more than 45.8 µM (ICRF193 200 nM).
`CCC(=O)[C@@]1(C)[C@H](C)C[C@H]2[C@@H]3CCC4=CC(=O)C=C[C@]4(C)[C@H]3[C@@H](O)C[C@@]21C` [Rimexolone]: the IC50 cell viability (ICRF193 0 nM) is more than 45.8 µM and the IC50 cell viability (ICRF193 200 nM) is more than 45.8 µM.
With `O=C1NC(=O)C(c2ccccc2)(c2ccccc2)N1` [5,5-Diphenylhydantoin], the IC50 cell viability is, setting by setting: (ICRF193 0 nM) more than 45.8 µM; (ICRF193 200 nM) more than 45.8 µM.
Regarding `CCCCCCCCCC(=O)O[C@H]1CC[C@H]2[C@@H]3CCC4=CC(=O)CC[C@@H]4[C@H]3CC[C@]12C` [Nandrolone decanoate], the IC50 cell viability is more than 45.8 µM (ICRF193 0 nM) and more than 45.8 µM (ICRF193 200 nM).
Regarding `CC(C)NC[C@@H](O)COc1ccc(CC(N)=O)cc1` [R-(+)-Atenolol], the IC50 cell viability was more than 45.8 µM (ICRF193 0 nM) and more than 45.8 µM (ICRF193 200 nM).
With `N#Cc1nn(-c2c(Cl)cc(C(F)(F)F)cc2Cl)c(N)c1[S+]([O-])C(F)(F)F` (stereo not given) [Fipronil], the IC50 cell viability (ICRF193 0 nM) is more than 45.8 µM and the IC50 cell viability (ICRF193 200 nM) is more than 45.8 µM.
Consider `Cc1c(C(N)=O)cc([N+](=O)[O-])cc1[N+](=O)[O-]` [Zoalene], for which the IC50 cell viability is more than 45.8 µM (ICRF193 0 nM) and more than 45.8 µM (ICRF193 200 nM).
On to `C=C1/C(=C\C=C2/CCC[C@]3(C)[C@@H]([C@H](C)/C=C/C=C/C(O)(CC)CC)CC[C@@H]23)C[C@@H](O)C[C@@H]1O` [Seocalcitol], for which the IC50 cell viability runs as follows: (ICRF193 0 nM) more than 45.8 µM; (ICRF193 200 nM) more than 45.8 µM.
For the compound `CCCCC/C=C\C/C=C\CCCCCCCC(=O)OCC` [Ethyl linoleate], the IC50 cell viability by setting is: (ICRF193 0 nM) more than 45.8 µM; (ICRF193 200 nM) more than 45.8 µM.
Regarding `C[N+](C)(C)CC(O)CC(=O)[O-]` (racemic) [DL-Carnitine HCl], the IC50 cell viability by setting is: (ICRF193 0 nM) more than 45.8 µM; (ICRF193 200 nM) more than 45.8 µM.
`CO[C@@]1(NC(=O)CSC[C@@H](N)C(=O)O)C(=O)N2C(C(=O)O)=C(CSc3nnnn3C)CS[C@@H]21` [Cefminox sodium] gave an IC50 cell viability (ICRF193 0 nM) of more than 45.8 µM and an IC50 cell viability (ICRF193 200 nM) of more than 45.8 µM.
As to `O=C(O)Cc1ccccc1` [Phenylacetic acid], the IC50 cell viability (ICRF193 0 nM) is more than 45.8 µM and the IC50 cell viability (ICRF193 200 nM) is more than 45.8 µM.
`CCN1CCCC1CNC(=O)c1cc(S(=O)(=O)CC)c(N)cc1OC` (stereo not given) [Amisulpride]: the IC50 cell viability was more than 45.8 µM (ICRF193 0 nM) and more than 45.8 µM (ICRF193 200 nM).
Turning to `CCOc1cc(N)c(Cl)cc1C(=O)NCC1CN(Cc2ccc(F)cc2)CCO1` (stereo not given) [Mosapride citrate], the IC50 cell viability (ICRF193 0 nM) was more than 45.8 µM and the IC50 cell viability (ICRF193 200 nM) is more than 45.8 µM.
The compound `CC(C)OC(=O)OCOP(=O)(CO[C@H](C)Cn1cnc2c(N)ncnc21)OCOC(=O)OC(C)C` [Tenofovir disoproxil fumarate] gave an IC50 cell viability (ICRF193 0 nM) of more than 45.8 µM and an IC50 cell viability (ICRF193 200 nM) of more than 45.8 µM.
As to `CCCCCC[C@@H](CCC)C(=O)O` [(2R)-2-Propyloctanoic acid], the IC50 cell viability was more than 45.8 µM (ICRF193 0 nM) and more than 45.8 µM (ICRF193 200 nM).
With `C[C@@H](CN1CC(=O)NC(=O)C1)N1CC(=O)NC(=O)C1` [Dexrazoxane hydrochloride], the IC50 cell viability was more than 45.8 µM (ICRF193 0 nM) and more than 45.8 µM (ICRF193 200 nM).
For the compound `N[C@@H](Cc1cc(I)c(Oc2ccc(O)c(I)c2)c(I)c1)C(=O)O` [Liothyronine Sodium], the IC50 cell viability was more than 45.8 µM (ICRF193 0 nM) and more than 45.8 µM (ICRF193 200 nM).
As for `Cc1cccc(Nc2ccccc2C(=O)O)c1C` [Mefenamic acid], the IC50 cell viability was more than 45.8 µM (ICRF193 0 nM) and more than 45.8 µM (ICRF193 200 nM).
The compound `CCOC(=O)[C@H](CCc1ccccc1)N[C@H]1CCc2ccccc2N(CC(=O)O)C1=O` [Benazepril] registered an IC50 cell viability (ICRF193 0 nM) of more than 45.8 µM and an IC50 cell viability (ICRF193 200 nM) of more than 45.8 µM.
On to `Cc1cc(O)c(C(C)C)cc1Cl` [6-Chlorothymol], for which the IC50 cell viability reads like this: (ICRF193 0 nM) more than 45.8 µM; (ICRF193 200 nM) more than 45.8 µM.
As for `O=C(NC1CCN(CCc2c[nH]c3ccccc23)CC1)c1ccccc1` [Indoramin hydrochloride], the IC50 cell viability runs as follows: (ICRF193 0 nM) more than 45.8 µM; (ICRF193 200 nM) more than 45.8 µM.
Consider `Fc1ccc([C@@H]2CCNC[C@H]2COc2ccc3c(c2)OCO3)cc1` [Paroxetine], for which the IC50 cell viability reads like this: (ICRF193 0 nM) more than 45.8 µM; (ICRF193 200 nM) more than 45.8 µM.
As to `COc1cccc(OC)c1C(=O)N[C@@H]1C(=O)N2[C@@H]1SC(C)(C)[C@@H]2C(=O)O` [Methicillin sodium hydrate], the IC50 cell viability is, setting by setting: (ICRF193 0 nM) more than 45.8 µM; (ICRF193 200 nM) more than 45.8 µM.
Turning to `CCCCCCCCCCCCSCCOCCOCCOCCOCCOCCOCCOCCOCCOCCO` [Laureth 10s], the IC50 cell viability by setting is: (ICRF193 0 nM) more than 45.8 µM; (ICRF193 200 nM) more than 45.8 µM.
On to `Clc1ccc(C(OCCN2CCCCC2)c2ccccc2)cc1` (stereo not given) [Cloperastine hydrochloride], for which the IC50 cell viability is more than 45.8 µM (ICRF193 0 nM) and more than 45.8 µM (ICRF193 200 nM).
With `CCCCCCCCCCCC(=O)OCC(O)CO` (stereo not given) [GLYCERYL LAURATE], the IC50 cell viability by setting is: (ICRF193 0 nM) more than 45.8 µM; (ICRF193 200 nM) more than 45.8 µM.
As for `C=C1C[C@H]2[C@@H]3CCC4=CC(=O)C=C[C@]4(C)[C@@]3(F)[C@@H](O)C[C@]2(C)[C@@]1(O)C(=O)COC(C)=O` [Fluprednidene acetate], the IC50 cell viability is, setting by setting: (ICRF193 0 nM) more than 45.8 µM; (ICRF193 200 nM) more than 45.8 µM.
`C[C@H](N)[C@H](O)c1ccc(O)c(O)c1` [Levonordefrin] gave an IC50 cell viability (ICRF193 0 nM) of more than 45.8 µM and an IC50 cell viability (ICRF193 200 nM) of more than 45.8 µM.
